# Laboratory results from article PMC9459403, “New inhibitors of cathepsin V impair tumor cell proliferation and elastin degradation and increase immune cell cytotoxicity” (Computational and Structural Biotechnology Journal, 2022).
# Entries after “also recorded” stand apart in the source; their conditions may differ.
# How the values were obtained:
# [1] = system: cystatin F in U-937 cells; experiment: Western blot of cystatin F dimer-to-monomer ratio; format: cell-based, human; settings: U-937 cell lysates, 6 h treatment, 10 and 20 μM, vs control
# Procedure: Cells were treated with E-64d or compound 7 (both at 10 µM or 20 µM) for 6 h. After treatment, whole-cell lysates were prepared in RIPA buffer supplemented with cOmplete™ Protease Inhibitor Cocktail (Roche, Basel, Switzerland) and centrifuged at 16 000 × g for 20 min at 4 °C. Total protein concentration was determined using the DC assay (Biorad, Hercules, CA, USA). Proteins were separated by non-reducing SDS-PAGE and transferred to a nitrocellulose membrane using the TransBlot Turbo System (Biorad). After blocking, the membranes were incubated with primary antibodies overnight at 4 °C and with secondary antibodies for 1 h at room temperature. Bands were visualized using Clarity Max Western ECL substrate (Biorad), and protein loading was checked using Stain Free technology (Biorad). Images were acquired using the ChemiDoc ML Imaging System (Biorad), and quantification analysis was performed using Image Lab software (Biorad).
# The following primary antibodies were used: rabbit anti-cystatin F (1:375, HPA040442, Sigma), goat anti-cathepsin V (1:200, AF 1080, R&D, USA), and mouse anti-GAPDH (1:3000, 10494-I-AP, Proteintech, USA). […]
# Cathepsin V [2] = target: T1, Cathepsin V (Homo sapiens, UniProt O60911); experiment: Determination of relative inhibition, substrate Z-Phe-Arg-AMC; format: biochemical; settings: inhibitor 50 μM; substrate 2 μM; mean ± SD (n = 2); read-out: Cathepsin V Ri (%) relative inhibition
# T1 construct: made in house; host or cells: Pichia pastoris
# T1 sequence (O60911 114-334): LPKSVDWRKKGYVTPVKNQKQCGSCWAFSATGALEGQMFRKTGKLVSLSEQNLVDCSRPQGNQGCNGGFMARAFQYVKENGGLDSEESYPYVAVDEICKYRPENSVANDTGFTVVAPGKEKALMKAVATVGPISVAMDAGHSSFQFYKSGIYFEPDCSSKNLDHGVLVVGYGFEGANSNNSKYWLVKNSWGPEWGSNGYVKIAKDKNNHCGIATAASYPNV
# Procedure: (§1) Human recombinant cathepsin V was expressed in Pichia Pastoris, and human recombinant cathepsin L was expressed in Escherichia coli, as reported, [51]. To determine the activities of cathepsins V and L, 100 mM acetate buffer (pH 5.5), containing 0.1 % PEG 8000 (Sigma-Aldrich, St. Louis, MO, USA), 5 mM cysteine, and 1.5 mM EDTA was used. Prior to the assay, the enzyme was activated in the assay buffer for 5 min at 37 °C.
# (§2) The effect of the inhibitors on cathepsin V and L activity was determined using the substrate Z-Phe-Arg-AMC (Bachem, Bubendorf, Switzerland). The reaction was initiated by adding 90 μL of the activated enzyme (final concentration 2.5 ng/mL and 0.02 nM for cathepsins V and L, respectively) to the wells of a black microtiter plate containing 5 μL of substrate (with a final concentration 2 μM) and 5 μL of inhibitor (with a final concentration of 50 μM). The formation of fluorescent degradation products during the reaction was monitored continuously at 460 nm ± 10 nm with excitation at 380 nm ± 20 nm at 37 °C on a Tecan Infinite M1000 (Mannedorf, Switzerland) spectrofluorometer. All assay mixtures contained 5 % (v/v) DMSO. To prevent false-positive inhibition due to the formation of compound aggregates, 0.01 % Triton X-100 was used. All measurements were performed in triplicate and repeated at least twice. Relative inhibition was calculated using the following equation: relative inhibition (%) = 100(1- vi/vo), where vi and vo denote the reaction velocities in the presence and absence of the inhibitor, respectively.
# [3] = target: T2, human recombinant cathepsin L (Homo sapiens, UniProt P07711); experiment: as above; format: biochemical; settings: inhibitor 50 μM; substrate 2 μM; mean ± SD (n = 2); read-out: Cathepsin L Ri (%) relative inhibition
# T2 construct: made in house; host or cells: Escherichia coli
# T2 sequence (P07711 114-333): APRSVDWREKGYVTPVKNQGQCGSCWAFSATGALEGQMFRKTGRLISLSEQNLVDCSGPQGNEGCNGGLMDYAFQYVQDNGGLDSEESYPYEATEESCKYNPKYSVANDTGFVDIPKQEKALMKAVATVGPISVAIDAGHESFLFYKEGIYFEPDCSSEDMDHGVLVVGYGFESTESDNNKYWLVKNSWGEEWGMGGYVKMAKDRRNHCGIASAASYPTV
# Procedure: as §1, §2
# Cathepsin V [4] = target: T1, Cathepsin V; experiment: Determination of binding reversibility (dilution method); format: biochemical; settings: inhibitor 100 μM, cathepsin V 500 ng/ml
# Procedure: Binding reversibility was determined according to the dilution method, which measures the recovery of enzymatic activity after rapid dilution of the enzyme-inhibitor complex. Cathepsin V (500 ng/ml) was incubated in the assay buffer with the inhibitor (100 μM). Half of the reaction mixture was immediately diluted 100-fold with the assay buffer and added to the wells of a black microplate containing 5 μL of substrate (at a final concentration of 2 μM), and the activity was measured. The other half of the reaction mixture was incubated for 2 h before it was diluted 100-fold, and then the activity was measured. The assay was performed in triplicates and repeated at least two times.
# Cathepsin V [5] = target: T1, Cathepsin V; experiment: Determination of Ki values and mode of inhibition; format: biochemical
# Procedure: as §1
# (§3) Inhibition constants were calculated from reaction velocities measured at three substrate concentrations (0.5, 1, and 4 μM) in the presence of inhibitors at seven concentrations (0, 20, 40, 60, 80, 100, and 200 µM). The reaction was initiated by adding 90 μL of enzyme at final concentrations of 2.5 ng/mL and 0.02 nM for cathepsins V and L, respectively, to the wells of a black microtiter plate containing 5 μL of substrate and 5 μL of inhibitor. To evaluate cathepsin V and L activity, the substrate Z-Phe-Arg-AMC was used. The formation of the fluorescent degradation products was monitored as described above. All assay mixtures contained 5 % (v/v) DMSO. All measurements were performed in duplicates and repeated at least twice. The SigmaPlot® 12, Enzyme Kinetics Module™ 1.3 was used to calculate Ki values.
# [6] = target: T2, human recombinant cathepsin L; experiment: Determination of Ki values and mode of inhibition; format: biochemical; settings: mean ± SD (n = 2)
# Procedure: as §1, §3
# Kinetic solubility = format: physicochemical; settings: PBS pH 7.4 with 5 % DMSO, pH 7.4, aqueous with cosolvent or surfactant or cyclodextrin, kinetic from dmso stock; PBS with 5 % DMSO
# Procedure: The solubility of compound 7 was determined in buffer (PBS pH 7.4) containing 5 % DMSO. Serial dilutions of 7 were prepared in DMSO at concentrations of 4 mM, 2 mM, 1.5 mM, 1 mM, and 0.2 mM. The assay was performed in 96-well microplates in duplicate. Briefly, to 190 µL of buffer, 10 µL of the compound stock solution in DMSO was added. The plate was shaken and the absorbance at 620 nm was measured using a plate reader (Synergy H4, BioTek Instruments, Inc., Santa Clara, CA, USA) in area scan mode (5 × 5 measurements per well). The mean absorbance was then compared relative to the blank to determine the solubility of the compound at each concentration tested.
compound,measurement,setting,value
"O=C(NCc1cccc2ccccc12)NCC1CCN(C(=O)Oc2ccccc2)CC1 [Compound 7, Phenyl 4-((3-(naphthalen-1-ylmethyl)ureido)methyl)piperidine-1-carboxylate]",cystatin F dimer-to-monomer ratio,[1],even further increased
same,inhibition at 50 µM,Cathepsin V [2],> 20%
same,inhibition at 50 µM,[3],12.1 ± 1.8%
same,binding reversibility: cathepsin V activity after 2 h incubation and 100-fold rapid dilution,Cathepsin V [4],reversible; also recorded: restored
same,mode of inhibition of cathepsin V,Cathepsin V [5],competitive
same,Ki,Cathepsin V [5]; mean ± SD (n = 2),88.7 ± 10.2 µM
same,Cathepsin L Ki (µM),[6],no inhibition and did not inhibit cathepsin L and n.i^f and n.i
same,Cathepsin L Ki′ (µM),[6],n.i^f
same,solubility kinetic,Kinetic solubility,75 to 100 µM
